According to paper PMC10729961, “Putative purine nucleoside interacting residues in the malaria parasite purine uptake transporter PfENT1 are critical for transporter function” (PLOS ONE, 2023):

What was measured:
Test in all cases: [3H]adenosine uptake assay, competition with cold uridine
Assay type in all cases: cell-based
PfENT1 D287C = biological target: T1, PfENT1 D287C (Plasmodium falciparum, UniProt Q8IDM6, D287C); conditions: cold uridine vs [3H]adenosine uptake, 15 min
T1 construct: expressed in transfected cells; host or cells: purine auxotrophic Saccharomyces cerevisiae (ade2Δ, fui1Δ), pCM189 episomal plasmid
Experimental: (§1) The radiolabeled uptake assay measures the ability of an unlabeled purine or pyrimidine substrate to inhibit the uptake of radiolabeled substrate into yeast via PfENT1 as previously described. Yeast strains containing PfENT1 (mutant or WT) were grown overnight in SDM media to a final OD600 between 0.2 and 0.5. Purine auxotrophic yeast used as a negative control were grown in YPD media. Yeast were spun down and washed three times with 15 mL phosphate buffered saline (PBS; 137 mM NaCl, 2.7 mM KCl, 10 mM KH2PO4, 10 mM Na2HPO4, pH 7.4). The final volume of yeast in PBS varied but it was diluted to a final OD600 = 0.2. […] For the dilution series, unlabeled purine/pyrimidine (Fischer Scientific Cat. #12-565-501) with a starting concentration of 25 mM was serially diluted 1:3 in PBS for a final concentration range of 3.28 nM to 6.25 mM. Yeast were incubated with radioactive substrate and the unlabeled purine/pyrimidine for 15 min. […] This ensured that competition only occurred at the transporter and not at cytoplasmic metabolic enzymes, because those are different for purines and pyrimidines. For determination of minimal and maximal uptake, yeast strains were incubated without radioactivity or with radioactivity but no cold substrate competition, respectively. […] Mats were allowed to air dry and sealed in sample bags with 5 mL of BetaPlate Scint scintillant cocktail (Perkin Elmer Cat. #1205–4401). The amount of radioactivity in each well was measured by liquid scintillation counting using a 1450 MicroBeta TriLux (Perkin Elmer). The counts per minute (cpm) were recorded and technical triplicates were averaged. IC50 values were calculated, and statistical analysis was performed using GraphPad/Prism9 software. Each experiment was repeated at least three times on separate days.
(§2) Statistical significance was calculated using one-way analysis of variance (ANOVA) with GraphPad/Prism9 software. IC50 values were calculated using the non-linear regression dose-response inhibition log(inhibitor) vs normalized response program. Cpm data was background subtracted by the cpm in yeast expressing WT PfENT1 in cold purine/pyrimidine. Data was normalized to the highest value for each mutant.

PfENT1 L289C = biological target: T2, PfENT1 L289C (Plasmodium falciparum, UniProt Q8IDM6, L289C)
T2 construct: expressed in transfected cells; host or cells: purine auxotrophic Saccharomyces cerevisiae (ade2Δ, fui1Δ), pCM189 episomal plasmid
Experimental: as §1, §2

PfENT1 S48C = biological target: T3, PfENT1 S48C (Plasmodium falciparum, UniProt Q8IDM6, S48C)
T3 construct: expressed in transfected cells; host or cells: purine auxotrophic yeast (ade2Δ, fui1Δ), pCM189 episomal plasmid
Experimental: as §1, §2

PfENT1 N51C = biological target: T4, PfENT1 N51C (Plasmodium falciparum, UniProt Q8IDM6, N51C)
T4 construct: expressed in transfected cells; host or cells: purine auxotrophic yeast (ade2Δ, fui1Δ), pCM189 episomal plasmid
Experimental: as §1, §2

PfENT1 L50C = biological target: T5, PfENT1 L50C (Plasmodium falciparum, UniProt Q8IDM6, L50C); conditions: cold uridine vs [3H]adenosine uptake, 15 min
T5 construct: expressed in transfected cells; host or cells: purine auxotrophic yeast (ade2Δ, fui1Δ), pCM189 episomal plasmid
Experimental: as §1, §2

PfENT1 V52C = biological target: T6, PfENT1 V52C (Plasmodium falciparum, UniProt Q8IDM6, V52C)
T6 construct: expressed in transfected cells; host or cells: purine auxotrophic yeast (ade2Δ, fui1Δ), pCM189 episomal plasmid
Experimental: as §1, §2

PfENT1 T136C = biological target: T7, PfENT1 T136C (Plasmodium falciparum, UniProt Q8IDM6, T136C)
T7 construct: expressed in transfected cells; host or cells: purine auxotrophic yeast (ade2Δ, fui1Δ), pCM189 episomal plasmid
Experimental: as §1, §2

WT PfENT1 = biological target: T8, WT PfENT1 (Plasmodium falciparum, UniProt Q8IDM6)
T8 construct: expressed in transfected cells; host or cells: purine auxotrophic yeast (ade2Δ, fui1Δ), pCM189 episomal plasmid
Experimental: as §1, §2

PfENT1 F288C = biological target: T9, PfENT1 F288C (Plasmodium falciparum, UniProt Q8IDM6, F288C)
T9 construct: expressed in transfected cells; host or cells: purine auxotrophic Saccharomyces cerevisiae (ade2Δ, fui1Δ), pCM189 episomal plasmid
Experimental: as §1, §2

PfENT1 Q135C = biological target: T10, PfENT1 Q135C (Plasmodium falciparum, UniProt Q8IDM6, Q135C); conditions: cold uridine vs [3H]adenosine uptake, 15 min
T10 construct: expressed in transfected cells; host or cells: purine auxotrophic yeast (ade2Δ, fui1Δ), pCM189 episomal plasmid
Experimental: as §1, §2

PfENT1 S290C = biological target: T11, PfENT1 S290C (Plasmodium falciparum, UniProt Q8IDM6, S290C); conditions: cold uridine vs [3H]adenosine uptake, 15 min
T11 construct: expressed in transfected cells; host or cells: purine auxotrophic Saccharomyces cerevisiae (ade2Δ, fui1Δ), pCM189 episomal plasmid
Experimental: as §1, §2

PfENT1 S49C = biological target: T12, PfENT1 S49C (Plasmodium falciparum, UniProt Q8IDM6, S49C)
T12 construct: expressed in transfected cells; host or cells: purine auxotrophic yeast (ade2Δ, fui1Δ), pCM189 episomal plasmid
Experimental: as §1, §2

PfENT1 A134C = biological target: T13, PfENT1 A134C (Plasmodium falciparum, UniProt Q8IDM6, A134C)
T13 construct: expressed in transfected cells; host or cells: purine auxotrophic yeast (ade2Δ, fui1Δ), pCM189 episomal plasmid
Experimental: as §1, §2

PfENT1 W53C = biological target: T14, PfENT1 W53C (Plasmodium falciparum, UniProt Q8IDM6, W53C); conditions: cold uridine vs [3H]adenosine uptake, 15 min
T14 construct: expressed in transfected cells; host or cells: purine auxotrophic yeast (ade2Δ, fui1Δ), pCM189 episomal plasmid
Experimental: as §1, §2

PfENT1 F286C = biological target: T15, PfENT1 F286C (Plasmodium falciparum, UniProt Q8IDM6, F286C)
T15 construct: expressed in transfected cells; host or cells: purine auxotrophic yeast (ade2Δ, fui1Δ), pCM189 episomal plasmid
Experimental: as §1, §2

[1] = tested on: purine auxotrophic yeast (ade2Δ, fui1Δ); conditions: ade2Δ strain; cold uridine vs [3H]adenosine uptake, 15 min
Experimental: as §1, §2

PfENT1 I137C = biological target: T16, PfENT1 I137C (Plasmodium falciparum, UniProt Q8IDM6, I137C)
T16 construct: expressed in transfected cells; host or cells: purine auxotrophic yeast (ade2Δ, fui1Δ), pCM189 episomal plasmid
Experimental: as §1, §2

PfENT1 R291C = biological target: T17, PfENT1 R291C (Plasmodium falciparum, UniProt Q8IDM6, R291C); conditions: cold uridine vs [3H]adenosine uptake, 15 min
T17 construct: expressed in transfected cells; host or cells: purine auxotrophic Saccharomyces cerevisiae (ade2Δ, fui1Δ), pCM189 episomal plasmid
Experimental: as §1, §2

T3 sequence (Q8IDM6 whole entry S48C): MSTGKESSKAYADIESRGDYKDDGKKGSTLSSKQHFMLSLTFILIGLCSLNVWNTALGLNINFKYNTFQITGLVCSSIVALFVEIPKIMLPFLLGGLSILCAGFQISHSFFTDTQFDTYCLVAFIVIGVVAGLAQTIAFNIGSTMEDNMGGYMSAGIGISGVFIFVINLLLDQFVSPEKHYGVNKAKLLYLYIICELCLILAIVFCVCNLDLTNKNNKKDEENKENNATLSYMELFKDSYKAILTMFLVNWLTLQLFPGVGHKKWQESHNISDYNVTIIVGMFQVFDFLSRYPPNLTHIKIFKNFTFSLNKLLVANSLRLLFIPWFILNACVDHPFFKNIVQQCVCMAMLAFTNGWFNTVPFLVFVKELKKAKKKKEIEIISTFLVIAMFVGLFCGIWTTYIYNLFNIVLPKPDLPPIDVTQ
T13 sequence (Q8IDM6 whole entry A134C): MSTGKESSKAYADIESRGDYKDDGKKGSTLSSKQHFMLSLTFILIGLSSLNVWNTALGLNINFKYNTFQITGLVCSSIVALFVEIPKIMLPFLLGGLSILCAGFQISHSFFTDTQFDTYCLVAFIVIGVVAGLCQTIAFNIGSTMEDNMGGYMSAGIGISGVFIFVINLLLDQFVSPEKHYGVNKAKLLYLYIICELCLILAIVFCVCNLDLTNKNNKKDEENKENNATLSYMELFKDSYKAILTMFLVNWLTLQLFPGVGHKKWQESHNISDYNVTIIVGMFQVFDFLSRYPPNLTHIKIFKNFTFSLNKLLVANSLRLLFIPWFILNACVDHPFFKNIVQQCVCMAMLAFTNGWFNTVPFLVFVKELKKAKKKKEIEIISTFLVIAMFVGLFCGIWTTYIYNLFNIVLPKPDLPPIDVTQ
T4 sequence (Q8IDM6 whole entry N51C): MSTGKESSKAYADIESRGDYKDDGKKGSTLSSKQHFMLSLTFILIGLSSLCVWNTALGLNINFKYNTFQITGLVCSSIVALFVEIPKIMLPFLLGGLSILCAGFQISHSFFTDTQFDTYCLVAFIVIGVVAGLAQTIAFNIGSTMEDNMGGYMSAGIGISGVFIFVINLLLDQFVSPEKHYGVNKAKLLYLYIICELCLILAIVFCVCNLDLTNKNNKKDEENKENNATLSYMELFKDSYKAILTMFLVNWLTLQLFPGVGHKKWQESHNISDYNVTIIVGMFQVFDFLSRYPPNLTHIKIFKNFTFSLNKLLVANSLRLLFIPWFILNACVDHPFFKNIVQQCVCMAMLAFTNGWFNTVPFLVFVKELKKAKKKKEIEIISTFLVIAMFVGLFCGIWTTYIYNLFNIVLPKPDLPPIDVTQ
T12 sequence (Q8IDM6 whole entry S49C): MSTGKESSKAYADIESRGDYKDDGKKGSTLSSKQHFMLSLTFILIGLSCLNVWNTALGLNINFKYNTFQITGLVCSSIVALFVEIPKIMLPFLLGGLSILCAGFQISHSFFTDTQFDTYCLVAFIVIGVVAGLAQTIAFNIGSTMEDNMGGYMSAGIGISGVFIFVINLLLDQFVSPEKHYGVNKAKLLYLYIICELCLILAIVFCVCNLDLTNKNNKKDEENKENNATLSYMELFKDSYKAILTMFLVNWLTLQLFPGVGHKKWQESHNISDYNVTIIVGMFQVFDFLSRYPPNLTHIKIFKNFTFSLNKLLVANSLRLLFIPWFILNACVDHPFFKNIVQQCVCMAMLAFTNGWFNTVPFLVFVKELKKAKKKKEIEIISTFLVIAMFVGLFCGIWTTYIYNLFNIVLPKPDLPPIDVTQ
T2 sequence (Q8IDM6 whole entry L289C): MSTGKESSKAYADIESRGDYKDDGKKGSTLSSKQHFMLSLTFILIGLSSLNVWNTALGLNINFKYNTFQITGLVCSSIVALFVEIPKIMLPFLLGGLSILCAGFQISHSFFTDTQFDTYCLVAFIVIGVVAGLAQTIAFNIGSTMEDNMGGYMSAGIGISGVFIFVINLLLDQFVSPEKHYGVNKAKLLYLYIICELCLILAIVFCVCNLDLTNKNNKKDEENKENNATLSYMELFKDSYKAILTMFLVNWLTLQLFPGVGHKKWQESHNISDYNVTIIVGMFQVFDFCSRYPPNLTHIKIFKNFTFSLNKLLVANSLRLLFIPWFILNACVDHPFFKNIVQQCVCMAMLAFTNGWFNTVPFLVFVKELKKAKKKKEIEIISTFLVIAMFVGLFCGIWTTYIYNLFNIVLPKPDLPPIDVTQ
T6 sequence (Q8IDM6 whole entry V52C): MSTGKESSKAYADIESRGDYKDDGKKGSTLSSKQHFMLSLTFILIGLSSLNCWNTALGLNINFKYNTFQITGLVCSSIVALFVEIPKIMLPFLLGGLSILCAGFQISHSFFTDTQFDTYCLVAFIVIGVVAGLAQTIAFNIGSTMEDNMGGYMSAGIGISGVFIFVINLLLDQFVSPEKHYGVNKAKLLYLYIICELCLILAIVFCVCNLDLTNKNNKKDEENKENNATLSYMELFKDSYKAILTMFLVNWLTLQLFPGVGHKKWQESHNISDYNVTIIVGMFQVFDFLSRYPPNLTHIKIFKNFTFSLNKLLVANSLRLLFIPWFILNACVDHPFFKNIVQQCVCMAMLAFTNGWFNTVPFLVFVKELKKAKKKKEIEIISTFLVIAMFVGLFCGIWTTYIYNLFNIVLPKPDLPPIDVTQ
T16 sequence (Q8IDM6 whole entry I137C): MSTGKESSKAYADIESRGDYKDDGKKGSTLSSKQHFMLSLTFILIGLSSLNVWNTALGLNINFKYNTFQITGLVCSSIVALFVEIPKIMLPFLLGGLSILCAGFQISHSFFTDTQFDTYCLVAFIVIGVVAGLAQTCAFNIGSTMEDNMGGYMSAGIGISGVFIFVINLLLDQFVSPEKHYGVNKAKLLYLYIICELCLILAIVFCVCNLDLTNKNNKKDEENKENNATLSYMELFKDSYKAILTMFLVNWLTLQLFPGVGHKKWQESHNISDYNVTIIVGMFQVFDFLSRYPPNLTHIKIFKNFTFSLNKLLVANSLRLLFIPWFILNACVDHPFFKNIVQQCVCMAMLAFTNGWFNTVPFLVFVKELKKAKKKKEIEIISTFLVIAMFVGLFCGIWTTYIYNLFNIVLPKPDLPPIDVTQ
T15 sequence (Q8IDM6 whole entry F286C): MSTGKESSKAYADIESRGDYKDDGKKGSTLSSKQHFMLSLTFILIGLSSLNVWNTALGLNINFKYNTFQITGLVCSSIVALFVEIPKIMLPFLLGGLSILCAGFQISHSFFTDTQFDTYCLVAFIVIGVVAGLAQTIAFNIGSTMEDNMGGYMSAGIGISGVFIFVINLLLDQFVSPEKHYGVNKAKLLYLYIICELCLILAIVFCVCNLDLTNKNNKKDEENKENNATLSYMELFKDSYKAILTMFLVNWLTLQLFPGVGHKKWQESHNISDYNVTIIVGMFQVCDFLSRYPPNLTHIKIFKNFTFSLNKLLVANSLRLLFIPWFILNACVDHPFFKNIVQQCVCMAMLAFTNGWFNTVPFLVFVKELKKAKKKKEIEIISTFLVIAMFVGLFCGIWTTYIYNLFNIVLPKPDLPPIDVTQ
T7 sequence (Q8IDM6 whole entry T136C): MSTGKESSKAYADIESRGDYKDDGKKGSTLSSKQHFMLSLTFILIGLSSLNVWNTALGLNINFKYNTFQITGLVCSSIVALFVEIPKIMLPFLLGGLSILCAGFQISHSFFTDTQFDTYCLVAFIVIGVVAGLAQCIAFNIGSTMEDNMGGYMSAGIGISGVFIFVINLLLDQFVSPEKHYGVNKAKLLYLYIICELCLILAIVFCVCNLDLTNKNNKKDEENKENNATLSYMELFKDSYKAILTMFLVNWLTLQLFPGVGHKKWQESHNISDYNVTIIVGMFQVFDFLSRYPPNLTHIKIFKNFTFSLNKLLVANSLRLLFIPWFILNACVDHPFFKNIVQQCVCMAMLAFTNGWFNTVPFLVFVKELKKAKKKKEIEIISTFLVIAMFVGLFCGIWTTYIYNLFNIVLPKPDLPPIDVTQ
T9 sequence (Q8IDM6 whole entry F288C): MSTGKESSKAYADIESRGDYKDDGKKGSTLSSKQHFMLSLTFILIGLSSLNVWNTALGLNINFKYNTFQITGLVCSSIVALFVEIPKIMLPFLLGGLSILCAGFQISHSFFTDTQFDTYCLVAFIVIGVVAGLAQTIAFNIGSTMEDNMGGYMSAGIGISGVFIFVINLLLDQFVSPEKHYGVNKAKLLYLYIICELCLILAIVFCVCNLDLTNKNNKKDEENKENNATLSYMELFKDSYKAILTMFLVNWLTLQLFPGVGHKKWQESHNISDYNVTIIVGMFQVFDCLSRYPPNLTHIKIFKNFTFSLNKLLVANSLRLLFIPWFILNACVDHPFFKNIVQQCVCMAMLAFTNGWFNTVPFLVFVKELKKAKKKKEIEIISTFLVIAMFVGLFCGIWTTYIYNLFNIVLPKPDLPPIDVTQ
T10 sequence (Q8IDM6 whole entry Q135C): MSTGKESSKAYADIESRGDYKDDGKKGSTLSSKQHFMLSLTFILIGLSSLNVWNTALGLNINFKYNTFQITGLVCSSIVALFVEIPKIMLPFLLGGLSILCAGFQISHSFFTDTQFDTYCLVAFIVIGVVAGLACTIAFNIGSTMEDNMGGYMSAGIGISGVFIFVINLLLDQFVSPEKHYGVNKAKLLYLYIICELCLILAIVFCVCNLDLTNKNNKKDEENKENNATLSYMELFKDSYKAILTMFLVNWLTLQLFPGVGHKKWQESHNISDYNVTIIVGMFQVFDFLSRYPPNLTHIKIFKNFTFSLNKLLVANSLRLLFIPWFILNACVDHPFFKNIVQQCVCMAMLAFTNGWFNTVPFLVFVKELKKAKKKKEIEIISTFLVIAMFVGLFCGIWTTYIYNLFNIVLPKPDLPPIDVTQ

`O=c1ccn([C@@H]2O[C@H](CO)[C@@H](O)[C@H]2O)c(=O)[nH]1` [Uridine, uridine] was tested, and the “Average IC50 (μM) Uridine” value (PfENT1 D287C) was “no uptake”, the IC50 (PfENT1 L289C) was 905 ± 164 µM and the “Mutant/WT Ratio Uridine” value (PfENT1 L289C; L289C, ratio of IC50 values) was 0.91. For the same compound, the IC50 (PfENT1 S48C) was 801 ± 46 µM, the “Mutant/WT Ratio Uridine” value (PfENT1 S48C; S48C, ratio of IC50 values) was 0.8 and the IC50 (PfENT1 N51C) was 30.9 ± 1 µM. The “Mutant/WT Ratio Uridine” value (PfENT1 N51C; N51C, ratio of IC50 values) was 0.031, the “Average IC50 (μM) Uridine” value (PfENT1 L50C) was “no uptake” and the IC50 (PfENT1 V52C) was 2820 ± 1440 µM. For the same compound, the “Mutant/WT Ratio Uridine” value (PfENT1 V52C; V52C, ratio of IC50 values) was 2.83, the IC50 (PfENT1 T136C) was 786 ± 87 µM and the “Mutant/WT Ratio Uridine” value (PfENT1 T136C; T136C, ratio of IC50 values) was 0.79. For the same compound, the IC50 (WT PfENT1) was 997 ± 90 µM, the IC50 (PfENT1 F288C) was 850 ± 138 µM and the “Mutant/WT Ratio Uridine” value (PfENT1 F288C; F288C, ratio of IC50 values) was 0.85. For the same compound, the “Average IC50 (μM) Uridine” value (PfENT1 Q135C) was “no uptake”, the “Average IC50 (μM) Uridine” value (PfENT1 S290C) was “no uptake” and the IC50 (PfENT1 S49C) was 1060 ± 30 µM. For the same compound, the “Mutant/WT Ratio Uridine” value (PfENT1 S49C; S49C, ratio of IC50 values) was 1.06, the IC50 (PfENT1 A134C) was 1020 ± 207 µM and the “Mutant/WT Ratio Uridine” value (PfENT1 A134C; A134C, ratio of IC50 values) was 1.02. The “Average IC50 (μM) Uridine” value (PfENT1 W53C) was “no uptake”, the IC50 (PfENT1 F286C) was 1210 ± 139 µM and the “Mutant/WT Ratio Uridine” value (PfENT1 F286C; F286C, ratio of IC50 values) was 1.21. The “Average IC50 (μM) Uridine” value [1] was “no uptake”, the IC50 (PfENT1 I137C) was 904 ± 21 µM and the “Mutant/WT Ratio Uridine” value (PfENT1 I137C; I137C, ratio of IC50 values) was 0.91. The “Average IC50 (μM) Uridine” value (PfENT1 R291C) was “no uptake”.
